Patent publication US8247573B2, “Substituted N-(2-mercaptopyridin-3-yl)amides as KCNQ2/3 modulators” (Gruenenthal GmbH, priority 2009, dated 2012)

Columns and labels:
KCNQ2/3 channels = target: T1, KCNQ2/3 channels (Homo sapiens, UniProt O43525+O43526); test: Fluorescence assay using a voltage-sensitive dye (fluorimetry); type: cell-based; conditions: CHO-K1 cells expressing KCNQ2/3; for EC50: agonistic activity; for Emax: relative to retigabine = 100%, negative values = antagonistic, read-out: Fluorimetry % efficacy (I/EC50, retigabine = 100%)
T1 construct: expressed in transfected cells; host or cells: CHO-K1
Protocol: Pharmacological Experiments Fluorescence Assay Using a Voltage-Sensitive Dye
Human CHO-K1 cells expressing KCNQ2/3 channels are cultivated adherently at 37° C., 5% CO2 and 95% humidity in cell culture bottles (e.g. 80 cm^2 TC flasks, Nunc) with DMEM-high glucose (Sigma Aldrich, D7777) including 10% FCS (PAN Biotech, e.g. 3302-P270521) or alternatively MEM Alpha Medium (1×, liquid, Invitrogen, #22571), 10% foetal calf serum (FCS) (Invitrogen, #10270-106, heat-inactivated) and the necessary selection antibiotics.
Before being seeded out for the measurements, the cells are washed with a 1×DPBS buffer without Ca^2+/Mg^2+ (e.g. Invitrogen, #14190-094) and detached from the bottom of the culture vessel by means of Accutase (PAA Laboratories, #L11-007) (incubation with Accutase for 15 min at 37° C.). The cell count then present is determined using a CASY™ cell counter (TCC model, Schärfe System) in order subsequently to apply 20,000 to 30,000 cells/well/100 μl of the described nutrient medium, depending on density optimisation for the individual cell line, to 96-well measuring plates of the Corning™ CellBIND™ type (flat clear-bottom black polystyrene microplates, #3340). Incubation is then carried out for one hour at room temperature, without gassing or adjusting the humidity, followed by incubation for 24 hours at 37° C., 5% CO2 and 95% humidity.
The voltage-sensitive fluorescent dye from the Membrane Potential Assay Kit (Red™ bulk format part R8123 for FLIPR, MDS Analytical Technologies™) is prepared by dissolving the contents of a vessel of Membrane Potential Assay Kit Red Component A in 200 ml of extracellular buffer (ES buffer, 120 mM NaCl, 1 mM KCl, 10 mM HEPES, 2 mM CaCl2, 2 mM MgCl2, 10 mM glucose; pH 7.4). After removal of the nutrient medium, the cells are washed with 200 μl of ES buffer, then covered with a layer of 100 μl of the dye solution prepared above and incubated for 45 min at room temperature with exclusion of light.
The fluorescence measurements are carried out with a BMG Labtech FLUOstar™, BMG Labtech NOVOstar™ or BMG Labtech POLARstar™ instrument (525 nm excitation, 560 nm emission, bottom-read mode). After incubation of the dye, 50 μl of the substances to be tested in the desired concentrations, or 50 μl of ES buffer for control purposes, are introduced into separate cavities of the measuring plate and incubated for 30 min at room temperature whilst being shielded from light. The fluorescence intensity of the dye is then measured for 5 min and the fluorescence value F1 of each well is thus determined at a given, constant time. 15 μl of a […] KCl solution […] are then added to each well. The change in fluorescence is subsequently measured until all relevant measured values have been obtained (mainly […]). At a given time after KCl application, a fluorescence value F2 is determined, in this case at the time of the fluorescence peak.
For calculation, the fluorescence intensity F2 is compared with the fluorescence intensity F1, and the agonistic activity of the target compound on the potassium channel is determined therefrom. F2 and F1 are calculated as follows: […]
In order to determine whether a substance has an agonistic activity,
[formula] is determined by adding to the reaction batch only the buffer solution instead of the substance to be tested, determining the value F1K of the fluorescence intensity, adding the potassium ions as described above and measuring a value F2K of the fluorescence intensity. Then F2K and F1K are calculated as follows: […]
A substance has an agonistic activity on the potassium channel if
Independently of the comparison of
[formula] it is also possible to conclude that a target compound has an agonistic activity if an increase in
[formula] is to be observed as the dosage of the target compound increases.
Calculations of EC50 values are carried out with the aid of Prism v4.0 software (GraphPad Softwares™).

mice = test: Formalin test in mice; type: in vivo; conditions: 4.64 mg/kg, phase 2 (chronic pain), change versus vehicle control
Protocol: The formalin test (Dubuisson, D. and Dennis, S. G., 1977, Pain, 4, 161-174) is a model for acute and chronic pain. A single formalin injection into the dorsal side of one rear paw is used to induce a biphase nociceptive response in experimental animals allowed to move freely, and the response is recorded by observation of three clearly distinguishable behaviour patterns. The response comprises two phases: phase 1=immediate response (duration up to 10 min; shaking of paw, licking), phase 2=delayed response (after a rest phase; likewise shaking of paw, licking; duration up to 60 min). […] In the experiments presented here the chronic pain component (phase 2) was evaluated.
Formalin is administered subcutaneously in a volume of 20 μl and a concentration of 1% into the dorsal side of the right rear paw of each animal. The specific behavioural changes, such as lifting, shaking or licking the paw (score 3, Dubuisson & Dennis, 1977), were observed and recorded during the observation period of 21 to 24 min after formalin injection. […]
Based on the quantification of the pain behaviour, the effect of the substance in the formalin test was determined as the change in comparison to the control as a percentage. […]

Row | EC50 (KCNQ2/3 channels) | Emax (KCNQ2/3 channels) | Compound | Formalin test in mice IV Effect @ dose [mg/kg] (mice)
1 | 0.031 µM | 164% | O=C(Cc1cccs1)Nc1cccnc1SCCS(=O)(=O)c1cccc(C(F)(F)F)c1 [Example 3, 2-Thiophen-2-yl-N-[2-[2-[[3-(trifluoromethyl)phenyl]sulfonyl]-ethylsulfanyl]-pyridin-3-yl]acetamide] | 87% @ 4.64
2 | 0.546 µM | 119% | CC(C)(C)CC(=O)Nc1cccnc1SCCOc1ccc(F)cc1 [Example 63, N-[2-[2-(4-Fluorophenoxy)-ethylsulfanyl]-pyridin-3-yl]-3,3-dimethyl butyramide] | 
3 | 0.2 µM | 49% | O=C(Nc1cccnc1SCCOc1ccc(F)cc1)c1ccc(F)c(F)c1 [Example 64, 3,4-Difluoro-N-[2-[2-(4-fluorophenoxy)-ethylsulfanyl]-pyridin-3-yl]benzamide] | 
4 | 0.48 µM | 148% | O=C(Nc1cccnc1SCCCc1ccc(F)cc1)c1ccc(F)c(F)c1 [Example 65, 3,4-Difluoro-N-[2-[3-(4-fluorophenyl)-propylsulfanyl]-pyridin-3-yl]benzamide] | 
5 | 0.184 µM | 176% | CC(C)(C)CC(=O)Nc1cccnc1SCCCc1ccc(F)cc1 [Example 66, N-[2-[3-(4-Fluorophenyl)-propylsulfanyl]-pyridin-3-yl]-3,3-dimethyl butyramide] | 
6 | 0.018 µM | 114% | O=C(CC1CCCCCC1)Nc1cccnc1SCCS(=O)(=O)c1ccc(F)cc1 [Example 67, 2-Cycloheptyl-N-[2-[2-[(4-fluorophenyl)sulfonyl]-ethylsulfanyl]-pyridin-3-yl]acetamide] | 
7 | 0.022 µM | 79% | O=C(Nc1cccnc1SCCS(=O)(=O)c1cccc(C(F)(F)F)c1)C(F)(F)C1CCCCC1 [Example 68, 2-Cyclohexyl-2,2-difluoro-N-[2-[2-[[3-(trifluoromethyl)phenyl]sulfonyl]-ethylsulfanyl]-pyridin-3-yl]acetamide] | 
